According to patent US20250122218A1, “MODULATORS OF CYSTIC FIBROSIS TRANSMEMBRANE CONDUCTANCE REGULATOR” (Vertex Pharmaceuticals Incorporated, priority 2022, published 2025):
Where two headings read alike, the source gives them in different places. Each block holds one compound with its values, some of them ahead of it.

Key:
[1] = biological target: T1, CFTR in F508del/MF-HBE cells (Homo sapiens, UniProt P13569, DEL508-508); test: Ussing chamber assay of CFTR-mediated short-circuit currents (identification of potentiator compounds); type: cell-based; conditions: potentiator incubated 18-24 hours at 37° C. in combination with 10 μM corrector, in the presence of 20% human serum, CFTR-mediated ISC
T1 construct: human bronchial epithelial (HBE) cells derived from CF subjects heterozygous for F508del and a minimal function CFTR mutation; endogenous in cells; host or cells: primary human bronchial epithelial cells from CF subjects (F508del/MF-HBE)
T1 sequence (P13569 with tags, fused parts or gaps DEL508-508): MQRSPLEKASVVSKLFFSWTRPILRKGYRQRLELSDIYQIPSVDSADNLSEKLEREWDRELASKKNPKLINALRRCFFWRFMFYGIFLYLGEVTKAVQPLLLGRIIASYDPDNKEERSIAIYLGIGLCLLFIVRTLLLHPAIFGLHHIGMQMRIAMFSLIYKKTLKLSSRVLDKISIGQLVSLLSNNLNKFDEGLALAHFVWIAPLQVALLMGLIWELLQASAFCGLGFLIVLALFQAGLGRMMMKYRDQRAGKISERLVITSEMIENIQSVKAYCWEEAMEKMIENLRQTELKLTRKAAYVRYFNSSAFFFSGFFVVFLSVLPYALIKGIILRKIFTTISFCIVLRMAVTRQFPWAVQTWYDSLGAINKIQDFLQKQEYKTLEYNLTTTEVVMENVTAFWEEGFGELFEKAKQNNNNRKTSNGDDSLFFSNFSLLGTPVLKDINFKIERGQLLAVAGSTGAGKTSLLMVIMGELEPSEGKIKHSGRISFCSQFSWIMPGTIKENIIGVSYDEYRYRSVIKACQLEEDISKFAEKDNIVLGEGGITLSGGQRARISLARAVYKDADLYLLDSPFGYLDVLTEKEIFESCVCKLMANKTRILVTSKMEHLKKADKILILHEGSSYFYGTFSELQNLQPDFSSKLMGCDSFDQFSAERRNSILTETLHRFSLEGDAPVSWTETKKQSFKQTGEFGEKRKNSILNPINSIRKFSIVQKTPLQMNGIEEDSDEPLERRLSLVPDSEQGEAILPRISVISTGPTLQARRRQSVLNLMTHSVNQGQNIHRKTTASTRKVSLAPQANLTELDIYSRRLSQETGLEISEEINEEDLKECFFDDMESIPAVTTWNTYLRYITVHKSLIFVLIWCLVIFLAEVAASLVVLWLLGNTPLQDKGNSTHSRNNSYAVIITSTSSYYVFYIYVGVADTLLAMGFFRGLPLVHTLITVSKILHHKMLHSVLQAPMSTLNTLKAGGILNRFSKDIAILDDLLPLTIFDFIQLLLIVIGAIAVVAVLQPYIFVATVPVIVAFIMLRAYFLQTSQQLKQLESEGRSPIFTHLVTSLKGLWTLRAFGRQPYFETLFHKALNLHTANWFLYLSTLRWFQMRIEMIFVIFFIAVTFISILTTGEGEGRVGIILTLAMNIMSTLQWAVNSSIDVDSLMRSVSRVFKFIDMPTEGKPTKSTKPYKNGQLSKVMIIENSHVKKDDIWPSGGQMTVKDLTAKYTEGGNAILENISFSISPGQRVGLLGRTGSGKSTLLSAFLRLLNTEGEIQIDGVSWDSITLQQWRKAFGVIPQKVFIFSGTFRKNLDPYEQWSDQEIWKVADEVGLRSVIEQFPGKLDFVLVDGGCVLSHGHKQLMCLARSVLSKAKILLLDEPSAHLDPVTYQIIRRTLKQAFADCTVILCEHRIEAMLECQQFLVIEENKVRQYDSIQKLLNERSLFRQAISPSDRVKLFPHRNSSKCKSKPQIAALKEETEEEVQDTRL
How it was run: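 F508del/MF-HBE cultures were preincubated 18-24 h at 37° C with potentiator plus 10 μM of a fixed corrector compound in 20% human serum; compounds were kept present during measurement. ISC was recorded under voltage clamp (0 mV, 37° C, amiloride apical) and taken as the 20 μM forskolin peak minus the current after inhibitor cocktail.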

SMILES: CC(C)(C)OC(=O)Nc1cc(C(F)(F)F)c2nc1-c1nnc(o1)C(OCc1ccccc1)(C(F)(F)F)CCCCN(C1CC(F)(F)C1)C2=O (stereo not shown)
ring closure, isolated yield (from CC(C)(C)OC(=O)Nc1cc(C(F)(F)F)c(C(=O)O)nc1-c1nnc(C(CCCCNC2CC(F)(F)C2)(OCc2ccccc2)C(F)(F)F)o1, amide bond, 13-membered ring, HATU/DIEA, DMF, 2.67 mM, 1.0 h): 33%

SMILES: CC(C)N1CCCCC(OCc2ccccc2)(C(F)(F)F)C2=NN=C(O2)c2nc(c(C(F)(F)F)cc2N)CC1=O (stereo not shown)
ring closure, isolated yield (from CC(C)NCCCCC(OCc1ccccc1)(c1nnc(-c2nc(CC(=O)O)c(C(F)(F)F)cc2N)o1)C(F)(F)F, amide bond, 14-membered ring, T3P/DIEA, EtOAc/NMP, 33.9 mM, 2.0 h): 23%

SMILES: CN1CCCCC(OCc2ccccc2)(C(F)(F)F)C2=NN=C(O2)c2nc(c(C(F)(F)F)cc2N)CC1=O (stereo not shown)
ring closure, isolated yield (from CNCCCCC(OCc1ccccc1)(c1nnc(-c2nc(CC(=O)O)c(C(F)(F)F)cc2N)o1)C(F)(F)F, amide bond, 14-membered ring, T3P/DIEA, EtOAc/NMP, 35.7 mM, 5.0 h): 45%

SMILES: Nc1cc(C(F)(F)F)c2nc1-c1nnc(o1)C(OCc1ccccc1)(C(F)(F)F)CCCCN(Cc1ccccc1)C(=O)C2 (stereo not shown)
ring closure, isolated yield (from Nc1cc(C(F)(F)F)c(CC(=O)O)nc1-c1nnc(C(CCCCNCc2ccccc2)(OCc2ccccc2)C(F)(F)F)o1, amide bond, 14-membered ring, T3P/DIEA, EtOAc/NMP, 31.5 mM, 2.0 h): 66%

SMILES: CC(C)(C)OC(=O)Nc1cc(C(F)(F)F)c2nc1-c1nnc(o1)C(O)(C(F)(F)F)c1cccc(c1)C=CCCC2C#N (mixture of isomers)
ring closure, isolated yield (from C=CCCC(C#N)c1nc(-c2nnc(C(O)(c3cccc(I)c3)C(F)(F)F)o2)c(NC(=O)OC(C)(C)C)cc1C(F)(F)F, cc_pd bond, 15-membered ring, Pd(OAc)2/P(o-tol)3/Et3N, MeCN, 9.4 mM, 80.0 °C): 93%

SMILES: CC(C)(C)OC(=O)Nc1cc(C(F)(F)F)c2nc1-c1nnc(o1)C(OCc1ccccc1)(C(F)(F)F)CCC=CCCC2 (mixture of isomers)
ring closure, isolated yield (from C=CCCCc1nc(-c2nnc(C(CCC=C)(OCc3ccccc3)C(F)(F)F)o2)c(NC(=O)OC(C)(C)C)cc1C(F)(F)F, rcm bond, 14-membered ring, Grubbs II (22 mol%), toluene, 2.63 mM, 100.0 °C): 39%

SMILES: COC1CCC=Cc2ccc(F)c(c2)C(O)(C(F)(F)F)C2=NN=C(O2)c2nc1c(C(F)(F)F)cc2NC(=O)OC(C)(C)C (mixture of isomers)
ring closure, isolated yield (from C=CCCC(OC)c1nc(-c2nnc(C(O)(c3cc(I)ccc3F)C(F)(F)F)o2)c(NC(=O)OC(C)(C)C)cc1C(F)(F)F, cc_pd bond, 15-membered ring, Pd(OAc)2/P(o-tol)3/Et3N, MeCN, 6.3 mM, 80.0 °C, 16.0 h): 62%

EC50 [1]: > 1000 nM
SMILES: Nc1cc(C(F)(F)F)c2nc1-c1nnc(o1)[C@@](O)(C(F)(F)F)CCCCCN(Cc1ccnc(OC(F)F)c1)C2=O [Compound 269, (6R)-17-amino-12-[[2-(difluoromethoxy)-4-pyridyl]methyl]-6-hydroxy-6,15-bis(trifluoromethyl)-19-oxa-3,4,12,18-tetrazatricyclo [12.3.1.12,5] nonadeca-1(18),2,4,14,16-pentaen-13-one]

SMILES: Nc1cc(C(F)(F)F)c2nc1-c1nnc(o1)[C@@](O)(C(F)(F)F)CCCCCN(Cc1ccnc(OC3CCC3)c1)C2=O [Compound 270, (6R)-17-amino-12-[[2-(cyclobutoxy)-4-pyridyl]methyl]-6-hydroxy-6,15-bis(trifluoromethyl)-19-oxa-3,4,12,18-tetrazatricyclo [12.3.1.12,5] nonadeca-1(18),2,4,14,16-pentaen-13-one]
EC50 [1]: < 500 nM

EC50 [1]: < 500 nM
SMILES: N#Cc1cccc(CN2CCCCC[C@](O)(C(F)(F)F)C3=NN=C(O3)c3nc(c(C(F)(F)F)cc3N)C2=O)c1 [Compound 271, 3-[[(6R)-17-amino-6-hydroxy-13-oxo-6,15-bis(trifluoromethyl)-19-oxa-3,4,12,18-tetrazatricyclo[12.3.1.12,5]nonadeca-1(18),2,4,14,16-pentaen-12-yl]methyl]benzonitrile]
